Earlier results, collected in patent publication EP0557244B1, “Dosage forms having prolonged active-ingredient release” (Siegfried Pharma AG, priority 1992, dated 1993).
Read-outs that look alike come from different tables or passages of the source.

[1] = 20 mg of crystalline nifedipine, Pabst et al.
[2] = 20 mg of dissolved nifedipine in capsules, Pabst et al.

SMILES: COC(=O)C1=C(C)NC(C)=C(C(=O)OC)C1c1ccccc1[N+](=O)[O-] [nifedipine]
- plasma level peaks [1]: about 40 ng/ml
- time of plasma level peaks [1]: about 1.5 hours
- plasma level peaks [2]: about 200 ng/ml
- time of plasma level peaks [2]: about 30 minutes
- plasma level peaks (tablet containing 40 mg of nifedipine (EP 220 760), initially): more than 60 ng/ml
